Results taken from patent US20050227994A1, “Decomposition inhibitor for extracellular matrix of cartilage” (Shionogi & Co., Ltd., priority 2002, published 2005).
Entries after “also recorded” stand apart in the source; their conditions may differ.

Assays:
[1] = tested on: cartilage disks of juvenile rabbits, IL-1 stimulated GAG release; assay: Cartilage culture test (IL-1 induced GAG release); assay type: cell-based, rabbit; conditions: stated in text for the compound of FIG. 1
Protocol: Cartilage disks (2 mm in diameter) were prepared from the cartilage of juvenile rabbits (3 weeks). Cartilage disks were transferred and cultured individually in the wells of a 48-well tissue culture plate containing DMEM/10% FCS for over 3 days at 37° C. In the night before the test, the medium of DMEM was changed to that not containing FCS. Next morning, IL-1 (4 ng/ml) and a test compound were added to the plate. It is provided that some wells of a plate contain only IL-1 (not containing test compound) and that some wells are vehicle (not containing IL-1 and test compound). After 4 days from the IL-1 addition, the amount of released glycosaminoglycan (GAG) was measured after collecting culture supernatant and cartilage disks.
Quantitation of GAG release was as follows; the weight of the cartilage disk was measured, then 200 μl of a papain digestion buffer solution (1 mM EDTA, 2 mM DTT, 20 mM Tris, (pH 7.0), Papain (300 μg/ml)) was added to each well and the plate containing the digestive solution was incubated for 2 h at 65° C. 50 μl of 100 mM Iodoacetatic acid (pH 7.0) was added for stopping the digestion. The extracts of cartilage are centrifuged at 12000 rpm for 5 min. […] The amount of released GAG in the transferred solution was quantitated by using a proteoglycan & glycosaminoglycan assay kit (Blyscan, Funakoshi Co., Ltd, Tokyo, Japan).

aggrecanase = assay: Aggrecanase inhibitory activity test (western blot with anti ARGSV antibody); assay type: cell-based, rabbit; conditions: 4 days culture supernatant containing both IL-1 and test compound
Protocol: To 50 μl of the above 4 days cultured supernatant (not including IL-1 and a test compound, including IL-1 only, including both IL-1 and a test compound) was added a 5 volume solution of 95% EtOH containing 1.3% (w/v) potassium acetate. After the mixed solution was stood at −20° C. for 30 min, the solution was centrifuged to obtain a precipitation. The precipitation was solubilized in 100 μl of 25 mM Tris-hydrochloric acid buffer solution (pH7.6) containing 5 mM calcium chloride*0.15M sodium chloride*0.0025% Brij35. After addition of 5 μl of 250 mM ethylenediaminetetraacetic acid, and 2.5 μl each of 1M sodium acetate (pH6.0) and 1M Tris-hydrochloric acid (pH7.9) to the solution, 2.5 μl of 0.02 units/μl Chondroitinase ABC and 1.0 μl of 0.1 units/μl Keratanase (Both are Seikagaku Kogyo, Japan) were added and the mixture was incubated at 37° C. for 16 h to remove GAG. […]
In the culture supernatant containing only IL-1, the 250 kDa aggrecanase-generated fragment of aggrecan which was recognized by anti N-terminus neoepitope antibody was observed, which was not detected in the supernatant not containing IL-1 and a test compound (XXI). On the other hand, in the culture supernatant containing both IL-1 and a test compound (XXI), the 250 kDa aggrecanase-generated fragment was not detected.

## CC(C)C(NS(=O)(=O)c1ccc(Oc2ccccc2)cc1)C(=O)NO (centres unmarked) [XXI]
[1]
  GAG value: 87
aggrecanase
  250 kDa aggrecanase-generated fragment of aggrecan (new N-terminus ARGSV), western blot: inhibits the production of aggrecanase-generated new N-terminus (ARGSV); also recorded: not detected
